In ChEMBL document CHEMBL5291721, “A preclinical secondary pharmacology resource illuminates target-adverse drug reaction associations of marketed drugs” (Nat Commun, 2023):

Experiments:
Adenosine receptor A1 = molecular target: T1, Adenosine receptor A1 (Homo sapiens, UniProt P30542)
T1 sequence (P30542 whole entry): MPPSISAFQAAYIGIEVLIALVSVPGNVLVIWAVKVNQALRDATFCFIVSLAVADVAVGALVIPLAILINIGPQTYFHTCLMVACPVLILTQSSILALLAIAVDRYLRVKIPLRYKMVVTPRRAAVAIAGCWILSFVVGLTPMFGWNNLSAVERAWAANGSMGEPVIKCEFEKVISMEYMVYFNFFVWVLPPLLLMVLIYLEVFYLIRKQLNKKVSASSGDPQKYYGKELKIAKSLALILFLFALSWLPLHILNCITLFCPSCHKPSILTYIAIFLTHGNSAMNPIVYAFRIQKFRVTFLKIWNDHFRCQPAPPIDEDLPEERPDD

Adenosine receptor A2a = Adenosine receptor A2a (Homo sapiens, UniProt P29274)
Chain of Adenosine receptor A2a (P29274 whole entry): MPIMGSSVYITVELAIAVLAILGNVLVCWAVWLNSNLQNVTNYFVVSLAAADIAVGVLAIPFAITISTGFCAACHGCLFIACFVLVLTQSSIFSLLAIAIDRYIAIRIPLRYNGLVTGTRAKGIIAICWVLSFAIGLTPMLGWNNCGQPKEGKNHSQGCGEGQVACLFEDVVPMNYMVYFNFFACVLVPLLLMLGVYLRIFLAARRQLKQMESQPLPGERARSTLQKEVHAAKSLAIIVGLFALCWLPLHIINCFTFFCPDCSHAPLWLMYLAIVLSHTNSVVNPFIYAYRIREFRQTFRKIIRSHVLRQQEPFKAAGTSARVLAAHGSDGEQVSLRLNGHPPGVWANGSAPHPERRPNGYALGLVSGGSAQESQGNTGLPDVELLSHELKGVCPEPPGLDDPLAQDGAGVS

[1] = molecular target: T2, Alpha-2A adrenergic receptor (Homo sapiens, UniProt P08913); assay type: functional, cell-based
T2 sequence (P08913 whole entry): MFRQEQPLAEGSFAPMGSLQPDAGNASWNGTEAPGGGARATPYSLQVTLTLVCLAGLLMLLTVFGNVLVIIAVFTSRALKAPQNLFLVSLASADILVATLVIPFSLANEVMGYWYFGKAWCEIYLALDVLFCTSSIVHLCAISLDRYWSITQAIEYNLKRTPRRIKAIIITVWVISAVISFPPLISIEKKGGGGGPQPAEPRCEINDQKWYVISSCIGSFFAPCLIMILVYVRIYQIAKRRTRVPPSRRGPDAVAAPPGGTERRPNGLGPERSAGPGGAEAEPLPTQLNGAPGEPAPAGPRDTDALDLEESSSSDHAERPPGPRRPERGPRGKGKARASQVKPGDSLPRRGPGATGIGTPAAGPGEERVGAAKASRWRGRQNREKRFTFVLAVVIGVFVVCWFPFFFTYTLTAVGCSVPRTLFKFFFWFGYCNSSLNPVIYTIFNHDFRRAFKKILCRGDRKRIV

Vasopressin V2 receptor = Vasopressin V2 receptor (Homo sapiens, UniProt P30518)
Chain of Vasopressin V2 receptor (P30518 whole entry): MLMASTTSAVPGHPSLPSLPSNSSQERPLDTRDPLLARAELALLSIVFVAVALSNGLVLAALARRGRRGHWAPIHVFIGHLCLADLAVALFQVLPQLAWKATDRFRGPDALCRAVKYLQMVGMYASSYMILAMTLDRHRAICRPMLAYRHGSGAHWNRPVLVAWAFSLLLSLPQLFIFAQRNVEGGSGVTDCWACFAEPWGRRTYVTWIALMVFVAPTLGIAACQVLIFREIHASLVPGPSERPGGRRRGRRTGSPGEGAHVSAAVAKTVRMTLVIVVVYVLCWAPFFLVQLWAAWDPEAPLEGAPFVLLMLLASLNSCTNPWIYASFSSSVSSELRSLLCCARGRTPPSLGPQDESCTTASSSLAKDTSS

Melanocortin receptor 4 = Melanocortin receptor 4 (Homo sapiens, UniProt P32245)
Chain of Melanocortin receptor 4 (P32245 whole entry): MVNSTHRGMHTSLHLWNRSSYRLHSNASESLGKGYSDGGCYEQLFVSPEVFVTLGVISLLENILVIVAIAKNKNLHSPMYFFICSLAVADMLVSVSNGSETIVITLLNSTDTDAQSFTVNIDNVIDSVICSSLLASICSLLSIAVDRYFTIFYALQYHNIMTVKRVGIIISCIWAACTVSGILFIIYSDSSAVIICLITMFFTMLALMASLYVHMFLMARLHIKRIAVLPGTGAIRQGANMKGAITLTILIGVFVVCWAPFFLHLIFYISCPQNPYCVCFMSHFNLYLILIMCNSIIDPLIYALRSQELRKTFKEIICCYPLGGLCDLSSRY

[2] = molecular target: T3, Neuropeptide Y receptor type 1 (Homo sapiens, UniProt P25929); settings: read-out: AC50
T3 sequence (P25929 whole entry): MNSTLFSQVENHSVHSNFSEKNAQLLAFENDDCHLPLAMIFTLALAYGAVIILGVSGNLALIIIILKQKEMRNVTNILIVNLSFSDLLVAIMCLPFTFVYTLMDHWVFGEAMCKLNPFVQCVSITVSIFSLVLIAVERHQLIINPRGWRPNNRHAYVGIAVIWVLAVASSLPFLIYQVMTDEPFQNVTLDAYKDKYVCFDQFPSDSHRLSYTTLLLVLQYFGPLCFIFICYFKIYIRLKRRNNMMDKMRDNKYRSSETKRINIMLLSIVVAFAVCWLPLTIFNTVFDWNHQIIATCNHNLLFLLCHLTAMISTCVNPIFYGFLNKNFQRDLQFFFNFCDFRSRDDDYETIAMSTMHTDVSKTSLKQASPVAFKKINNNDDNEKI

[3] = molecular target: cGMP-inhibited 3',5'-cyclic phosphodiesterase 3A (Homo sapiens, UniProt Q14432); assay type: functional
Chain of cGMP-inhibited 3',5'-cyclic phosphodiesterase 3A (Q14432 whole entry): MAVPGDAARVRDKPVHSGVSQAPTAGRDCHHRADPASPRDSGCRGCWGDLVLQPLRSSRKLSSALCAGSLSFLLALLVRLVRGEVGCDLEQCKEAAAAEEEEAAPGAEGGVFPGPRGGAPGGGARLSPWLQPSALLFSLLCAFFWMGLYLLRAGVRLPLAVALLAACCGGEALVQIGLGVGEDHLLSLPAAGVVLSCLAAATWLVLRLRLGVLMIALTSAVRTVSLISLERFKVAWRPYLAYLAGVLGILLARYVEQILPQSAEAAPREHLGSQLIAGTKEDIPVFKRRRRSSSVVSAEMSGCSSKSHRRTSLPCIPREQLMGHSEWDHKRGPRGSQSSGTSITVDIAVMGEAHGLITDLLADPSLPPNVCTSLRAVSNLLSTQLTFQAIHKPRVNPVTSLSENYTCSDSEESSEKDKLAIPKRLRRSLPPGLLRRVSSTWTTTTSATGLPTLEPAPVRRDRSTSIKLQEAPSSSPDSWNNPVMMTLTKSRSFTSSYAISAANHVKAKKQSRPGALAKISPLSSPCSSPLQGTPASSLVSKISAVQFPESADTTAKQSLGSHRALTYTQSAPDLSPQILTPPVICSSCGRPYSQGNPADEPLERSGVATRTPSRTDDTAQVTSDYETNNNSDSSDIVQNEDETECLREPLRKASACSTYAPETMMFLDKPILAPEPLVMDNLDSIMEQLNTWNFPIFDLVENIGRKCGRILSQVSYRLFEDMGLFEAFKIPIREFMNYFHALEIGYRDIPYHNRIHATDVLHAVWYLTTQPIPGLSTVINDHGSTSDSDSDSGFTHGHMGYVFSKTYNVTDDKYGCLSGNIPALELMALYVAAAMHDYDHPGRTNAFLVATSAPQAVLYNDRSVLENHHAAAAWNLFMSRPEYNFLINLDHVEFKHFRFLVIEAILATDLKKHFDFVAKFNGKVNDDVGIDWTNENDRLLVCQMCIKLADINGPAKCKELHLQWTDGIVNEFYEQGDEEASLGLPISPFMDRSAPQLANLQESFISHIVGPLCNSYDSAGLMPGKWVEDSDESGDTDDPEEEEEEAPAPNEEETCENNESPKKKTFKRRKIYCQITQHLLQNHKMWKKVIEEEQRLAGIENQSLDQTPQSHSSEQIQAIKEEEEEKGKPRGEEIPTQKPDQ

Histamine H3 receptor = Histamine H3 receptor (Homo sapiens, UniProt Q9Y5N1)
Chain of Histamine H3 receptor (Q9Y5N1 whole entry): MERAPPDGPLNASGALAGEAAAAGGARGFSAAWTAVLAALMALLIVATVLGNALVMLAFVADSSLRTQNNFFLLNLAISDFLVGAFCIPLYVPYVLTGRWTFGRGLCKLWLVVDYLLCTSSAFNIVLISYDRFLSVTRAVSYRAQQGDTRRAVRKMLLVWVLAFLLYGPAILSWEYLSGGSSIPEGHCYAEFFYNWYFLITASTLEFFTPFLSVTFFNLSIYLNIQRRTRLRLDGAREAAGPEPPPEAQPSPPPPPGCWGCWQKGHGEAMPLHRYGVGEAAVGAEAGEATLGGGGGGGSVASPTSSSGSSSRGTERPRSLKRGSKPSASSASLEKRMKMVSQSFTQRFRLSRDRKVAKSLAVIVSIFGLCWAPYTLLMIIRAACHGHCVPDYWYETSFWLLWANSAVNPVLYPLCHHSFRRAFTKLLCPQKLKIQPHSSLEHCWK

Progesterone receptor = molecular target: T4, Progesterone receptor (Homo sapiens, UniProt P06401); assay type: functional
T4 sequence (P06401 whole entry): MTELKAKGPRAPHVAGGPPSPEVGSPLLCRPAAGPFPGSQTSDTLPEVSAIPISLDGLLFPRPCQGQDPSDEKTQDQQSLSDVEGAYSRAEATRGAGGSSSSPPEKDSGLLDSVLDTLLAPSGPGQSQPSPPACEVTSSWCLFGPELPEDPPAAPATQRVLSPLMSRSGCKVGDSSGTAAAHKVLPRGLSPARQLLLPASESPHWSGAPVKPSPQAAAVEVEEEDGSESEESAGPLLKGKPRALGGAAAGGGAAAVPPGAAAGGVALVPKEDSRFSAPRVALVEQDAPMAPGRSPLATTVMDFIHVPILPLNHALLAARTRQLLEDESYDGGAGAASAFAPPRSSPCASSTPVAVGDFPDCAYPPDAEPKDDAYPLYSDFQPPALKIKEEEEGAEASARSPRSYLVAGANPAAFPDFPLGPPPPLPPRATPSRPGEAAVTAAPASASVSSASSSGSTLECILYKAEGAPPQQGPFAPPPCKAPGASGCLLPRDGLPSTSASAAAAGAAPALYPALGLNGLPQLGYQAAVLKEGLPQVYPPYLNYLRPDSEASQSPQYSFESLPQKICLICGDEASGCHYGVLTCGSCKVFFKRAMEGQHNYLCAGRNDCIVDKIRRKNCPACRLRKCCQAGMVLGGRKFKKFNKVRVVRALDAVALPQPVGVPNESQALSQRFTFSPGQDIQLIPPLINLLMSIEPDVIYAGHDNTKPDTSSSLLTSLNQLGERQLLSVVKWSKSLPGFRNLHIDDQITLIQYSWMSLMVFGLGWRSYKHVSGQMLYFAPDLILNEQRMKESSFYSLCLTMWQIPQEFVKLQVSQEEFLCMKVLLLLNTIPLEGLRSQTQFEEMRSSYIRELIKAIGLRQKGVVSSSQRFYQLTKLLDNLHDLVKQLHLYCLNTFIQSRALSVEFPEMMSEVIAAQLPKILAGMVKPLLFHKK

Adenosine receptor A3 = molecular target: T5, Adenosine receptor A3 (Homo sapiens, UniProt P0DMS8)
T5 sequence (P0DMS8 whole entry): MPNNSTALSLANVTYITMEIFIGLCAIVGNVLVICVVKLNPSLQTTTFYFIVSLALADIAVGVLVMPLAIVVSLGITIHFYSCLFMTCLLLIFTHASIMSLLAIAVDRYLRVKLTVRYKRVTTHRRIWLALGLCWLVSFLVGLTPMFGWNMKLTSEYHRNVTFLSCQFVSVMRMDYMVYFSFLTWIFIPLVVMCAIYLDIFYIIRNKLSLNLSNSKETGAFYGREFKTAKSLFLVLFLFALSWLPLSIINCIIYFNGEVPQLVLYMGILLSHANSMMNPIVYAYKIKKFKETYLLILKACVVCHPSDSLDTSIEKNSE
Also: assay procedure not described here.

Structure (SMILES) | AC50 (Adenosine receptor A1) [µM] | AC50 (Adenosine receptor A2a) [µM] | AC50 [1] [µM] | AC50 (Vasopressin V2 receptor) [µM] | AC50 (Melanocortin receptor 4) [µM] | AC50 [2] [µM] | AC50 [3] [µM] | AC50 (Histamine H3 receptor) [µM] | AC50 (Progesterone receptor) [µM] | AC50 (Adenosine receptor A3) [µM]
COc1cc2nc(N3CCN(C(=O)C4CCCO4)CC3)nc(N)c2cc1OC (configuration not stated) [TERAZOSIN] | > 30 | > 30 | > 30 | > 30 | > 30 | > 30 | > 30 | > 10 |  | 
O=C1CN(/N=C/c2ccc(-c3ccc([N+](=O)[O-])cc3)o2)C(O)=N1 [DANTROLENE] | 25 | > 30 | > 10 | > 10 | > 10 | > 10 | > 30 |  | > 10 | 
C[C@H]1c2cccc(O)c2C(=O)C2=C(O)[C@]3(O)C(=O)C(C(N)=O)=C(O)[C@@H](N(C)C)[C@@H]3[C@@H](O)[C@@H]21 [DOXYCYCLINE] | 24.2 | > 30 | > 10 | > 30 | > 30 | > 30 | > 30 | > 10 |  | 
O=C1C(CC[S+]([O-])c2ccccc2)C(=O)N(c2ccccc2)N1c1ccccc1 (configuration not stated) [SULFINPYRAZONE] | > 10 | > 10 | > 30 | > 10 | > 10 | > 10 | > 30 |  | > 10 | 
N#Cc1ccc2c(c1)N(CCCN1CCC(O)CC1)c1ccccc1S2 [PERICIAZINE] |  |  |  |  |  |  |  |  |  | > 30
N[C@@H](CS)C(=O)O [CYSTEINE] |  |  |  |  |  |  |  |  |  | > 30
Nc1ccc(S(=O)(=O)Nc2nccs2)cc1 [SULFATHIAZOLE] | > 30 | > 30 | > 10 | > 30 | > 30 | > 30 | > 30 | > 10 |  | 
COc1cc2nccc(Oc3ccc(NC(=O)C4(C(=O)Nc5ccc(F)cc5)CC4)cc3)c2cc1OC [CABOZANTINIB] | > 30 | > 30 | 19 |  |  |  | > 30 | > 30 | 24 | 0.379
C[C@@H](Oc1cc(-c2cnn(C3CCNCC3)c2)cnc1N)c1c(Cl)ccc(F)c1Cl [CRIZOTINIB] | > 30 | > 30 | 15 | > 30 | 19.8 | 8.44 | > 30 |  | > 30 | 
C/C=C/C/C=C/CCC(=O)[C@H]1O[C@H]1C(N)=O [CERULENIN] |  |  |  |  |  |  |  |  |  | > 30
CCCC(CCC)C(=O)O [VALPROIC ACID] | > 30 | > 30 | > 10 | > 30 | > 30 | > 30 | > 30 | > 10 |  | 
CN1C(C(=O)Nc2ccccn2)=C(O)c2ccccc2S1(=O)=O [PIROXICAM] | > 10 | > 10 | > 10 | > 10 | > 10 | > 10 | > 30 |  | > 10 | 
C=C[C@H]1C[N@@]2CC[C@H]1C[C@@H]2[C@@H](O)c1ccnc2ccc(OC)cc12 [QUINIDINE] | > 30 | > 30 | 12 | > 30 | > 30 | > 30 | > 30 | > 10 |  | 
Cc1ccccc1C(=O)Nc1ccc(C(=O)N2CCCC(N(C)C)c3ccccc32)cc1 (configuration not stated) [MOZAVAPTAN] |  |  |  |  |  |  |  |  |  | > 30
C[C@]1(Cn2ccnn2)[C@H](C(=O)O)N2C(=O)C[C@H]2S1(=O)=O [TAZOBACTAM] |  |  |  |  |  |  |  |  |  | > 30
CN(C)[C@@H]1C(O)=C(C(N)=O)C(=O)[C@@]2(O)C(O)=C3C(=O)c4c(O)ccc(Cl)c4[C@@](C)(O)[C@H]3C[C@@H]12 [CHLORTETRACYCLINE] |  |  |  |  |  |  |  |  |  | > 30
C[N+](C)(C)C[C@H](O)CC(=O)[O-] [LEVOCARNITINE] |  |  |  |  |  |  |  |  |  | > 30
CC(C)OC(=O)CCC/C=C\C[C@@H]1[C@@H](/C=C/C(F)(F)COc2ccccc2)[C@H](O)C[C@@H]1O [TAFLUPROST] |  |  |  |  |  |  |  |  |  | > 30
CC1=C(/C=C/C(C)=C/C=C/C(C)=C/C(=O)O)C(C)(C)CCC1 [TRETINOIN] |  |  |  |  |  |  |  |  |  | 8.21
C=CCN1CC[C@]23CCCC[C@H]2[C@H]1Cc1ccc(O)cc13 [LEVALLORPHAN] |  |  |  |  |  |  |  |  |  | > 30
CC(C)(O)CNc1nc(Nc2ccnc(C(F)(F)F)c2)nc(-c2cccc(C(F)(F)F)n2)n1 [ENASIDENIB] |  |  |  |  |  |  |  |  |  | 0.003
CC(CCc1ccccc1)NCC(O)c1ccc(O)c(C(N)=O)c1 (configuration not stated) [LABETALOL] |  |  |  |  |  |  |  |  |  | > 30
Cc1onc(-c2ccccc2)c1C(=O)N[C@@H]1C(=O)N2[C@@H]1SC(C)(C)[C@@H]2C(=O)O [OXACILLIN] |  |  |  |  |  |  |  |  |  | > 30
O=C(O)COc1ccc(C(=O)c2cccs2)c(Cl)c1Cl |  |  |  |  |  |  |  |  |  | > 30
COc1c2ccoc2cc2oc(=O)ccc12 [BERGAPTEN] |  |  |  |  |  |  |  |  |  | 23.8
CC[C@H](C)C[C@H](C)CCCCCCCCC(=O)N[C@H]1C[C@@H](O)[C@@H](NCCN)NC(=O)[C@@H]2[C@@H](O)CCN2C(=O)[C@H]([C@H](O)CCN)NC(=O)[C@H]([C@H](O)[C@@H](O)c2ccc(O)cc2)NC(=O)[C@@H]2C[C@@H](O)CN2C(=O)[C@H]([C@@H](C)O)NC1=O [CASPOFUNGIN] |  |  |  |  |  |  |  |  |  | 11.3
CO[C@H]1/C=C/O[C@@]2(C)Oc3c(C)c(O)c4c(O)c(c(/C=N/N5CCN(C)CC5)c(O)c4c3C2=O)NC(=O)/C(C)=C\C=C\[C@H](C)[C@H](O)[C@@H](C)[C@@H](O)[C@@H](C)[C@H](OC(C)=O)[C@@H]1C [RIFAMPIN] | 18.8 | 13 | > 30 | 30 | > 30 | 22.5 | 18.3 | 25 |  | 
Nc1ccc(C(=O)Oc2ccccc2)c(O)c1 [PHENYL AMINOSALICYLATE] |  |  |  |  |  |  |  |  |  | 18.4
CN(C)CCc1c[nH]c2ccc(Cn3cncn3)cc12 [RIZATRIPTAN] | > 30 | > 30 | > 30 | > 30 | > 30 | > 30 | > 30 | > 10 |  | 
